Results: ChEMBL document CHEMBL3045592, “Studies of O,O-dimethyl α-(2,4-dichlorophenoxyacetoxy)ethylphosphonate (HW02) as a new herbicide. 1. Synthesis and herbicidal activity of HW02 and analogues as novel inhibitors of pyruvate dehydrogenase complex” (J Agric Food Chem, 2011)

What was measured:
Cardamine hirsuta [1] = experiment: Post-emergence herbicidal activity against Cardamine hirsuta assessed as growth inhibition at 75 ai g/ha after 20 days by green house test; type: functional
[2] = test system: Brassica rapa subsp. oleifera; experiment: Post-emergence herbicidal activity against Brassica rapa subsp. oleifera Si Yue Man assessed as growth inhibition at 225 ai g/ha after 20 days by green house test; type: functional
Medicago sativa [3] = experiment: Post-emergence herbicidal activity against Medicago sativa (alfalfa) assessed as growth inhibition at 18.75 ai g/ha after 20 days by green house test; type: functional
Oryza sativa [4] = experiment: Inhibition of PDHc in Oryza sativa (rice) shoot mitochondria assessed as decrease in rate of NADH formation using sodium pyruvate as substrate at 1 microg/g preincubated for 25 min before substrate addition measured after 1 min by spectrophotometric assay
Portulaca oleracea [5] = experiment: Post-emergence herbicidal activity against Portulaca oleracea assessed as growth inhibition at 150 ai g/ha after 20 days by green house test; type: functional
Xanthium strumarium [6] = experiment: Post-emergence herbicidal activity against Xanthium strumarium (cocklebur) assessed as growth inhibition at 300 ai g/ha after 20 days by green house test; type: functional
Amaranthus retroflexus [7] = experiment: Post-emergence herbicidal activity against Amaranthus retroflexus assessed as growth inhibition at 300 ai g/ha after 20 days by green house test; type: functional
[8] = test system: Brassica rapa subsp. oleifera; experiment: Post-emergence herbicidal activity against Brassica rapa subsp. oleifera Si Yue Man assessed as growth inhibition at 450 ai g/ha after 20 days by green house test; type: functional
Amaranthus retroflexus [9] = experiment: Post-emergence herbicidal activity against Amaranthus retroflexus assessed as growth inhibition at 75 ai g/ha after 20 days by green house test; type: functional
Daucus carota [10] = experiment: Post-emergence herbicidal activity against Daucus carota (carrot) assessed as growth inhibition at 150 ai g/ha after 20 days by green house test; type: functional
[11] = Toxicity against Oryza sativa (rice) assessed as growth inhibition at 600 ai g/ha post-emergent application measured after 20 days by green house crop selectivity test; type: organism-based; conditions: in vivo, read-out: GI
Oryza sativa [12] = experiment: Inhibition of PDHc in Oryza sativa (rice) shoot mitochondria assessed as decrease in rate of NADH formation using sodium pyruvate as substrate at 100 microg/g preincubated for 25 min before substrate addition measured after 1 min by spectrophotometric assay
Oryza sativa [13] = experiment: Inhibition of PDHc in Oryza sativa (rice) shoot mitochondria assessed as decrease in rate of NADH formation using sodium pyruvate as substrate at 10 microg/g preincubated for 25 min before substrate addition measured after 1 min by spectrophotometric assay
Digitaria sanguinalis [14] = experiment: Post-emergence herbicidal activity against Digitaria sanguinalis (hairy crabgrass) assessed as growth inhibition at 18.75 ai g/ha after 20 days by green house test; type: functional
Eclipta prostrata [15] = experiment: Post-emergence herbicidal activity against Eclipta prostrata assessed as growth inhibition at 300 ai g/ha after 20 days by green house test; type: functional
Xanthium strumarium [16] = experiment: Post-emergence herbicidal activity against Xanthium strumarium (cocklebur) assessed as growth inhibition at 450 ai g/ha after 20 days by green house test; type: functional
Echinochloa crus-galli = experiment: Post-emergence herbicidal activity against Echinochloa crus-galli (barnyard grass) assessed as growth inhibition at 300 ai g/ha after 20 days by green house test; type: functional
Daucus carota [17] = experiment: Post-emergence herbicidal activity against Daucus carota (carrot) assessed as growth inhibition at 225 ai g/ha after 20 days by green house test; type: functional
Cardamine hirsuta [18] = experiment: Post-emergence herbicidal activity against Cardamine hirsuta assessed as growth inhibition at 37.5 ai g/ha after 20 days by green house test; type: functional
[19] = Toxicity against Triticum aestivum Yang Mai 1 (wheat) assessed as growth inhibition at 225 ai g/ha post-emergent application measured after 20 days by green house crop selectivity test; type: organism-based; conditions: Yang Mai 1, triticum aestivum, in vivo, read-out: GI
Amaranthus retroflexus [20] = experiment: Post-emergence herbicidal activity against Amaranthus retroflexus assessed as growth inhibition at 18.75 ai g/ha after 20 days by green house test; type: functional
Portulaca oleracea [21] = experiment: Post-emergence herbicidal activity against Portulaca oleracea assessed as growth inhibition at 18.75 ai g/ha after 20 days by green house test; type: functional
[22] = Toxicity against Triticum aestivum Yang Mai 1 (wheat) assessed as growth inhibition at 450 ai g/ha post-emergent application measured after 20 days by green house crop selectivity test; type: organism-based; conditions: Yang Mai 1, triticum aestivum, in vivo, read-out: GI
Eclipta prostrata [23] = experiment: Post-emergence herbicidal activity against Eclipta prostrata assessed as growth inhibition at 150 ai g/ha after 20 days by green house test; type: functional
Amaranthus retroflexus [24] = experiment: Post-emergence herbicidal activity against Amaranthus retroflexus assessed as growth inhibition at 37.5 ai g/ha after 20 days by green house test; type: functional
[25] = Toxicity against Zea mays Gao you 1 (maize) assessed as growth inhibition at 450 ai g/ha post-emergent application measured after 20 days by green house crop selectivity test; type: organism-based; conditions: Gao you 1, zea mays, in vivo, read-out: GI
[26] = test system: Brassica rapa subsp. oleifera; experiment: Post-emergence herbicidal activity against Brassica rapa subsp. oleifera Si Yue Man assessed as growth inhibition at 600 ai g/ha after 20 days by green house test; type: functional
Eclipta prostrata [27] = experiment: Post-emergence herbicidal activity against Eclipta prostrata assessed as growth inhibition at 225 ai g/ha after 20 days by green house test; type: functional
Amaranthus retroflexus [28] = experiment: Post-emergence herbicidal activity against Amaranthus retroflexus assessed as growth inhibition at 225 ai g/ha after 20 days by green house test; type: functional
Daucus carota [29] = experiment: Post-emergence herbicidal activity against Daucus carota (carrot) assessed as growth inhibition at 450 ai g/ha after 20 days by green house test; type: functional
Eclipta prostrata [30] = experiment: Post-emergence herbicidal activity against Eclipta prostrata assessed as growth inhibition at 18.75 ai g/ha after 20 days by green house test; type: functional
Portulaca oleracea [31] = experiment: Post-emergence herbicidal activity against Portulaca oleracea assessed as growth inhibition at 37.5 ai g/ha after 20 days by green house test; type: functional
Portulaca oleracea [32] = experiment: Post-emergence herbicidal activity against Portulaca oleracea assessed as growth inhibition at 225 ai g/ha after 20 days by green house test; type: functional
Xanthium strumarium [33] = experiment: Post-emergence herbicidal activity against Xanthium strumarium (cocklebur) assessed as growth inhibition at 225 ai g/ha after 20 days by green house test; type: functional
Medicago sativa [34] = experiment: Post-emergence herbicidal activity against Medicago sativa (alfalfa) assessed as growth inhibition at 37.5 ai g/ha after 20 days by green house test; type: functional
[35] = Toxicity against Zea mays Gao you 1 (maize) assessed as growth inhibition at 300 ai g/ha post-emergent application measured after 20 days by green house crop selectivity test; type: organism-based; conditions: Gao you 1, zea mays, in vivo, read-out: GI
[36] = test system: Brassica rapa subsp. oleifera; experiment: Post-emergence herbicidal activity against Brassica rapa subsp. oleifera Si Yue Man assessed as growth inhibition at 150 ai g/ha after 20 days by green house test; type: functional
[37] = Toxicity against Triticum aestivum Yang Mai 1 (wheat) assessed as growth inhibition at 300 ai g/ha post-emergent application measured after 20 days by green house crop selectivity test; type: organism-based; conditions: Yang Mai 1, triticum aestivum, in vivo, read-out: GI
Daucus carota [38] = experiment: Post-emergence herbicidal activity against Daucus carota (carrot) assessed as growth inhibition at 600 ai g/ha after 20 days by green house test; type: functional
Digitaria sanguinalis [39] = experiment: Post-emergence herbicidal activity against Digitaria sanguinalis (hairy crabgrass) assessed as growth inhibition at 225 ai g/ha after 20 days by green house test; type: functional

With `COP(=O)(OC)C(C)OC(=O)COc1ccc(Cl)cc1Cl` (stereo not given) [CLACYFOS] the “growth inhibition (GI)” value (Cardamine hirsuta [1]) was 88%, the “growth inhibition (GI)” value [2] was 100% and the “growth inhibition (GI)” value (Medicago sativa [3]) was 60%. The inhibition (Oryza sativa [4]) was 8.2%, the “growth inhibition (GI)” value (Portulaca oleracea [5]) was 85% and the “growth inhibition (GI)” value (Xanthium strumarium [6]) was 100%. The “growth inhibition (GI)” value (Amaranthus retroflexus [7]) was 100%, the “growth inhibition (GI)” value [8] was 100% and the “growth inhibition (GI)” value (Amaranthus retroflexus [9]) was 90%. For the same compound, the “growth inhibition (GI)” value (Daucus carota [10]) was 95%, the inhibition at 480 h [11] was 0% and the inhibition (Oryza sativa [12]) was 21.3%. The inhibition (Oryza sativa [13]) was 16.9%, the “growth inhibition (GI)” value (Digitaria sanguinalis [14]) was 0% and the “growth inhibition (GI)” value (Eclipta prostrata [15]) was 100%. For the same compound, the “growth inhibition (GI)” value (Xanthium strumarium [16]) was 100%, the “growth inhibition (GI)” value (Echinochloa crus-galli) was 20% and the “growth inhibition (GI)” value (Daucus carota [17]) was 97%. For the same compound, the “growth inhibition (GI)” value (Cardamine hirsuta [18]) was 84%, the inhibition at 480 h [19] was 0% and the “growth inhibition (GI)” value (Amaranthus retroflexus [20]) was 65%. The “growth inhibition (GI)” value (Portulaca oleracea [21]) was 50%, the inhibition at 480 h [22] was 0% and the “growth inhibition (GI)” value (Eclipta prostrata [23]) was 90%. For the same compound, the “growth inhibition (GI)” value (Amaranthus retroflexus [24]) was 82.5%, the inhibition at 480 h [25] was 0% and the “growth inhibition (GI)” value [26] was 100%. The “growth inhibition (GI)” value (Eclipta prostrata [27]) was 96%, the “growth inhibition (GI)” value (Amaranthus retroflexus [28]) was 100% and the “growth inhibition (GI)” value (Daucus carota [29]) was 100%. The “growth inhibition (GI)” value (Eclipta prostrata [30]) was 56%, the “growth inhibition (GI)” value (Portulaca oleracea [31]) was 65% and the “growth inhibition (GI)” value (Portulaca oleracea [32]) was 90%. For the same compound, the “growth inhibition (GI)” value (Xanthium strumarium [33]) was 95%, the “growth inhibition (GI)” value (Medicago sativa [34]) was 72% and the inhibition at 480 h [35] was 0%. The “growth inhibition (GI)” value [36] was 97%, the inhibition at 480 h [37] was 0% and the “growth inhibition (GI)” value (Daucus carota [38]) was 100%. For the same compound, the “growth inhibition (GI)” value (Digitaria sanguinalis [39]) was 22.5%.
